Positions count from the first letter of the chain named.
What was measured:
Format in all cases: cell-based
CsRDL [1] = molecular target: T1, CsRDL (Chilo suppressalis, UniProt E2IKR3); experiment: two-electrode voltage clamp, inhibition of GABA-induced current in Xenopus oocytes
T1 construct: homomeric channel
T1 sequence (E2IKR3 27-496): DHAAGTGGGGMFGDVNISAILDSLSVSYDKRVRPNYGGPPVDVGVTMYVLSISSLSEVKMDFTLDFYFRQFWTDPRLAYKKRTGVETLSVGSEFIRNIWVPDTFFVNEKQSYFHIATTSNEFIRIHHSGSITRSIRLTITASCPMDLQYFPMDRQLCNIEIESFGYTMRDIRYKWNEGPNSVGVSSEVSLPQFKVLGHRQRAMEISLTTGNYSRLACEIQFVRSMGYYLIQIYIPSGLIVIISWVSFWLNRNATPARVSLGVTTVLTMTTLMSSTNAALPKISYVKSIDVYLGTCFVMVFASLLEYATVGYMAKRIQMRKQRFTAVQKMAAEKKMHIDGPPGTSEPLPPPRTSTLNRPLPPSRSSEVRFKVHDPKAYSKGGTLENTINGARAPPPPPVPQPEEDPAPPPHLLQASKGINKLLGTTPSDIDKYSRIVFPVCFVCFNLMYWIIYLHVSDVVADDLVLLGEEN

TuRDL [2] = molecular target: T2, TuRDL (Tetranychus urticae, UniProt E3WEB3); experiment: two-electrode voltage clamp, GABA-induced current in Xenopus oocytes
T2 construct: gene Rdl; homomeric
T2 sequence (E3WEB3 18-827): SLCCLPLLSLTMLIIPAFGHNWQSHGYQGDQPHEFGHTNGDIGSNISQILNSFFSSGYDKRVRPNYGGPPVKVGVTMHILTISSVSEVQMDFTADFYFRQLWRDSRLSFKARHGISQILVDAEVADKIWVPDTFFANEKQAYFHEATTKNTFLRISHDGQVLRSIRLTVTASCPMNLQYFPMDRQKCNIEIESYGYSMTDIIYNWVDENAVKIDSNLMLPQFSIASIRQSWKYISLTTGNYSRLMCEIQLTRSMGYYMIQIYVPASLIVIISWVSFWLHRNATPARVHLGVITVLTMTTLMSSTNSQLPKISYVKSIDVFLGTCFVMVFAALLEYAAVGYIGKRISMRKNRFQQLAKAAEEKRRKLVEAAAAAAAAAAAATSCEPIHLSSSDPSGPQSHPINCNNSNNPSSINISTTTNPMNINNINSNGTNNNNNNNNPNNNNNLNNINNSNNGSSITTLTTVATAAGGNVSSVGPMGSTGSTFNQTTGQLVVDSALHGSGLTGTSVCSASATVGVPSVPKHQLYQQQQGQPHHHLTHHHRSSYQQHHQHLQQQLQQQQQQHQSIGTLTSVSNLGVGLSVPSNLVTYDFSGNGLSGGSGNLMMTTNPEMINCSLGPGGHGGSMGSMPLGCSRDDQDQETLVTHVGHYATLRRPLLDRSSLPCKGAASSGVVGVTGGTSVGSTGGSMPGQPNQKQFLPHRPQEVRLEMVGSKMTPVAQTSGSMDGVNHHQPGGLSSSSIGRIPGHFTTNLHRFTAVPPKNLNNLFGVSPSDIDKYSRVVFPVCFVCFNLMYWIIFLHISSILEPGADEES

AmRDL [3] = molecular target: T3, AmRDL (Apis mellifera, UniProt A0A168SJP2); experiment: as above
T3 construct: homomeric
T3 sequence (A0A168SJP2 19-477): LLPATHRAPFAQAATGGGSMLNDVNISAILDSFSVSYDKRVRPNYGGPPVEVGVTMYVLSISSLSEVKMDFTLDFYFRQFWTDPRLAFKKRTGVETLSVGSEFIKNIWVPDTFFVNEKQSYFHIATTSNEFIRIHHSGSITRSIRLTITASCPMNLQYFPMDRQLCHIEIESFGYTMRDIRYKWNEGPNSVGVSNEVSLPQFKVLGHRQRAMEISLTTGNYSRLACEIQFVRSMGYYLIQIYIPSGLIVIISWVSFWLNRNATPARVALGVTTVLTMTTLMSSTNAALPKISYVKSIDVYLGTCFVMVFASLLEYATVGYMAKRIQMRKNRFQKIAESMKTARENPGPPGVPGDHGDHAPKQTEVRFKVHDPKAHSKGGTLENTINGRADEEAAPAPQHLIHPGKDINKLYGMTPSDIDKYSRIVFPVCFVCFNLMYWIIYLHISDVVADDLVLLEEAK

LsRDL [4] = molecular target: T4, LsRDL (Laodelphax striatellus, UniProt Q0ECT5); experiment: as above
T4 construct: homomeric
T4 sequence (Q0ECT5 23-487): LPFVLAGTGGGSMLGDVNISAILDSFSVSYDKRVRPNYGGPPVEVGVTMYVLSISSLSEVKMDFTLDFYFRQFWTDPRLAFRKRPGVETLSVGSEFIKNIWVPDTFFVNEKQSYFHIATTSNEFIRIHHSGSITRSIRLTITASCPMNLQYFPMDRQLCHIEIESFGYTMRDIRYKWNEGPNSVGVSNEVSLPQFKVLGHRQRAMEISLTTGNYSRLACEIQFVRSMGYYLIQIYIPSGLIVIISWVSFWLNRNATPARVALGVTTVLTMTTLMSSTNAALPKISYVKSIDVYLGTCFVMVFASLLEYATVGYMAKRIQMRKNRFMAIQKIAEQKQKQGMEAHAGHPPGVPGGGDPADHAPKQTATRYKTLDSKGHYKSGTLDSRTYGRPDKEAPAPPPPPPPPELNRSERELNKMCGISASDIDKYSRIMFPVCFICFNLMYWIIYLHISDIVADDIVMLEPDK

CsRDL [5] = molecular target: T1, CsRDL; experiment: as above
DmRDL [6] = molecular target: T5, DmRDL (Drosophila melanogaster, UniProt P25123, G335M); experiment: two-electrode voltage clamp, inhibition of GABA-induced current in Xenopus oocytes
T5 construct: gene Rdl; homomeric
T5 sequence (P25123 45-606 G335M): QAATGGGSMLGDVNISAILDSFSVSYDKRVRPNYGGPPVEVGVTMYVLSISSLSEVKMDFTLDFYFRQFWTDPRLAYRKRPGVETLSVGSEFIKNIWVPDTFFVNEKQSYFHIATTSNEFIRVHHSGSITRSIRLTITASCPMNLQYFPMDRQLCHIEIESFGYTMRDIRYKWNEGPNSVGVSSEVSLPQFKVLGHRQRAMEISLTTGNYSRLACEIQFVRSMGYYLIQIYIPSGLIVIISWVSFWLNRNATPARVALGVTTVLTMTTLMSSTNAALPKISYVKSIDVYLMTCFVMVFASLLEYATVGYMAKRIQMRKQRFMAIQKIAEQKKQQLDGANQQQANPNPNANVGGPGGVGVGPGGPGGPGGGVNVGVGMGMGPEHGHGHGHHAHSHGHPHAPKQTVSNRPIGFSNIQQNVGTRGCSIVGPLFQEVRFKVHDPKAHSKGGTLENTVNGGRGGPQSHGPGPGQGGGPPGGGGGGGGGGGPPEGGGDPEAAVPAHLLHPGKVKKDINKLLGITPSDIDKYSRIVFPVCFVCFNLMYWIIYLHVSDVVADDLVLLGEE

LsRDL [7] = molecular target: T4, LsRDL; experiment: as above
AmRDL [8] = molecular target: T3, AmRDL; experiment: as above
TuRDL [9] = molecular target: T2, TuRDL; experiment: as above
DmRDL [10] = molecular target: T6, DmRDL (Drosophila melanogaster, UniProt P25123); experiment: as above
T6 construct: gene Rdl; homomeric
T6 sequence (P25123 45-606): T5 sequence (P25123 45-606 G335M) with M291G

| SMILES | IC50 (CsRDL [1]) | EC50 (TuRDL [2]) | EC50 (AmRDL [3]) | EC50 (LsRDL [4]) | EC50 (CsRDL [5]) | IC50 (DmRDL [6]) | IC50 (LsRDL [7]) | IC50 (AmRDL [8]) | IC50 (TuRDL [9]) | IC50 (DmRDL [10]) |
| --- | --- | --- | --- | --- | --- | --- | --- | --- | --- | --- |
| N#Cc1nn(-c2c(Cl)cc(C(F)(F)F)cc2Cl)c(N)c1[S+]([O-])C(F)(F)F (centres unmarked) [fipronil] | 10 nM | – | – | – | – | – | – | – | – | – |
| NCCCC(=O)O [GABA] | – | 295000 nM | 13400 nM | 31900 nM | 18100 nM | – | – | – | – | – |
| Cc1cc(C2=NOC(c3cc(Cl)cc(Cl)c3)(C(F)(F)F)C2)ccc1C(=O)NCC(=O)NCC(F)(F)F (centres unmarked) [fluralaner] | 4.2 nM | – | – | – | – | > 10000 nM | 3.27 nM | 9.38 nM | 2.53 nM | 6.96 nM |

Reference: article PMC10337980 (PLOS Genetics, 2023)
